Source: patent US10206937B2, “Boronic acid derivatives and therapeutic uses thereof” (Qpex Biopharma, Inc., priority 2014, dated 2019)

System: strains of Enterobacteriaceae producing various carbapenemases (class A, D and B; 169 strains)
Assay: Meropenem or tebipenem potentiation by Compounds 97 or 62 (MIC)
Assay type: cell-based
Procedure, shortened: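 Meropenem and tebipenem MICs measured alone or with Compound 97 or 62 held at a fixed 8 μg/ml in the growth medium. Panel of 169 clinical Enterobacteriaceae isolates expressing class A, D and B carbapenemases, alone or with other beta-lactamases.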

Measured: Tebipenem MIC alone (T)

C[C@@H](O)[C@H]1C(=O)N2C(C(=O)O)=C(SC3CN(C4=NCCS4)C3)[C@H](C)[C@H]12 [T]
Y (MIC of 1 μg/mL to 10 μg/mL): CF1022 Citrobacter freundii SHV-12(2be), TEM-OSBL(2b), IMP-8 | ECL1045 Enterobacter cloacae VIM-1 | ECL1087 Enterobacter cloacae VIM-1 | ECL1090 Enterobacter cloacae TEM-1(2b), CTX-M-22, ACT-type, IMP-8 | ECL1092 Enterobacter cloacae TEM-OSBL(2b), ACT-32, VIM-1 | ECL1093 Enterobacter cloacae TEM-OSBL(2b), ACT-32, VIM-1 | KP1065 Klebsiella pneumoniae VIM-1, SHV-11 | KP1159 Klebsiella pneumoniae SHV-1(2b), CTX-M-15, IMP-4 | KP1160 Klebsiella pneumoniae SHV-28(2be), CTX-M-15, IMP-26 | KP1169 Klebsiella pneumoniae SHV-11(2b), VIM-1 | KP1172 Klebsiella pneumoniae SHV-31(2be), DHA-1, VIM-1 | KP1173 Klebsiella pneumoniae TEM-33(2br), CTX-M-15, IMP-1 | KP1174 Klebsiella pneumoniae CTX-M-14, IMP-1 | KP1180 Klebsiella pneumoniae SHV-OSBL(2b), TEM-OSBL(2b), CTX-M-15, DHA-1, IMP-26 | KP1181 Klebsiella pneumoniae SHV-OSBL(2b), CTX-M-15, IMP-26
Z (MIC of greater than 10 μg/mL): CF1023 Citrobacter freundii SHV-12(2be), TEM-OSBL(2b), CTX-M-3, CMY-34, NDM-1 | EC1061 Escherichia coli NDM-1, CMY-6 | EC1069 Escherichia coli CTX-M-27, NDM-1 | EC1070 Escherichia coli TEM-OSBL(2b), CMY-42, NDM-5 | EC1072 Escherichia coli CTX-M-3, NDM-1 | ECL1055 Enterobacter cloacae KPC-3, TEM | ECL1057 Enterobacter cloacae NDM-1, TEM-1, CTX-M-15 | ECL1084 Enterobacter cloacae CTX-M-15, ACT-16, NDM-1 | ECL1085 Enterobacter cloacae SHV-31(2be), TEM-1(2b), CTX-M-15, NDM-1 | ECL1094 Enterobacter cloacae VIM-1 | ECL1095 Enterobacter cloacae SHV-12(2be), TEM-OSBL(2b), CMY-4, ACT-16, VIM-4, OXA-48(c) | ECL1096 Enterobacter cloacae CMY-4, VIM-4, OXA-48(c) | ECL1097 Enterobacter cloacae SHV-31(2be), TEM-OSBL(2b), CTX-M-15, ACT-31, NDM-1 | ECL1098 Enterobacter cloacae TEM-OSBL(2b), DHA-1, ACT-16, NDM-1 | KP1054 Klebsiella pneumoniae VIM-1, SHV-11 | KP1059 Klebsiella pneumoniae VIM-1, SHV-11 | KP1061 Klebsiella pneumoniae KPC-3, TEM-1, SHV-11 | KP1064 Klebsiella pneumoniae KPC-2, TEM-1, SHV-11 | KP1070 Klebsiella pneumoniae KPC-2, SHV-11, TEM-1 | KP1074 Klebsiella pneumoniae KPC-3, SHV-11, TEM | KP1081 Klebsiella pneumoniae NDM-1, TEM-1, SHV-11, CMY-6, CTX-M-15 | KP1158 Klebsiella pneumoniae KPC-2, VIM-1 | KP1161 Klebsiella pneumoniae NDM-1 | KP1162 Klebsiella pneumoniae SHV-1(2b), CTX-M-15, IMP-4 | KP1163 Klebsiella pneumoniae SHV-11(2b), MOX-1, KPC-2, VIM-1 | KP1164 Klebsiella pneumoniae SHV-12(2be), VIM-1 | KP1165 Klebsiella pneumoniae SHV-11(2b), CTX-M-15, VIM-27 | KP1166 Klebsiella pneumoniae SHV-5(2be), VIM-26 | KP1168 Klebsiella pneumoniae SHV-11(2b), CTX-M-15, VIM-27 | KP1170 Klebsiella pneumoniae SHV-11(2b), CTX-M-15, NDM-1 | KP1175 Klebsiella pneumoniae SHV-OSBL(2b), VIM-1 | KP1176 Klebsiella pneumoniae SHV-12(2be), TEM-OSBL(2b), CMY-13, KPC-2, VIM-1 | KP1177 Klebsiella pneumoniae SHV-OSBL(2b), TEM-OSBL(2b), CTX-M-15, NDM-1 | KP1178 Klebsiella pneumoniae SHV-OSBL(2b), TEM-OSBL(2b), CTX-M-15, NDM-1 | KP1179 Klebsiella pneumoniae SHV-12(2be), TEM-OSBL(2b), CTX-M-15, NDM-7
